Data from patent publication US20230348450A1, “CARBOXYLIC ACID-CONTAINING COMPOUNDS AS MODULATORS OF BIS-PHOSPHOGLYCERATE MUTASE FOR THE TREATMENT OF SICKLE CELL DISEASE” (Genzyme Corporation, priority 2020, published 2023).

Columns and labels:
[1] = test system: human red blood cells; assay: Human Cell-Based Assay; conditions: Erythrocyte; human whole blood suspension, 37° C., 24 h; metabolites (2,3-BPG, ATP) by LC/MS; read-out: hRBC EC50
Description: Example B3. Human Cell-Based Assay
The following materials were used in this assay: DMSO; Hemox buffer (30 mM TES, 135 mM NaCl, 5 mM KCl, pH 7.4); Inosine (100 mM in hemox buffer); Glucose (1 M in water); human red blood cells; LC/MS Optima grade methanol; LC/MS Optima grade water; and Incubation buffer (30 mM TES, 135 mM NaCl, 5 mM KCl, 50 mM inosine, 20 mM glucose pH 7.4).
Test compounds were loaded onto a 96-well plate (final concentration of DMSO was 1%). 10 mL whole blood was resuspended with an equivalent amount of 2× incubation buffer to make 25% het & 50% plasma solution. The final solution contains 10 mM glucose and 25 mM inosine. The blood suspension (100 uL) was added to the wells of the plate. The plate was covered with an adhesive foil cover and plastic lid, and incubated at 37° C. for 24 h. The samples were extracted through an SPE column and the metabolites (2,3-BPG, ATP) were analyzed by LC/MS.

[2] = target: human Bisphosphoglycerate mutase (hBPGM) (Homo sapiens (Human), UniProt P07738); assay: BPGM Phosphatase Assay; format: biochemical; conditions: Table 6 additional results; read-out: huBPGM: phosphatase Enzyme EC50
Description: Solutions of the test compounds were then added to the plate and the DMSO content was normalized across the plate. The plate was incubated at RT for 15 min. Next, the substrate 2,3-BPG (5 μL) was added to all the wells, and the plate was sealed and incubated for 24 hr at RT. After incubation, BIOMOL green dye (40 μL) was added to all the wells, the plate was shaken to mix, and the plate was incubated at RT for 20-30 min.

[3] = target: hBPGM (Homo sapiens (Human), UniProt P07738); assay: BPGM Synthase Assay; format: biochemical; conditions: Table 6 additional results; read-out: huBPGM: synthase Enzyme IC50
Procedure, shortened: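 BPGM (5 nM) with GAPDH (0.4 U/mL) was incubated with compound for 30 min at RT in pH 7.4 Tris buffer with 3.23 mM KH2PO4 and 1 mM DTT. Reaction ran 60 min with NAD, 3PG and GAP (substrate solution 2 mM, 20 μM and 800 μM). After koningic acid stop, NADH fluorescence was read, then resorufin from diaphorase/resazurin coupling.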

human Bisphosphoglycerate mutase (hBPGM), sequence (P07738 whole entry): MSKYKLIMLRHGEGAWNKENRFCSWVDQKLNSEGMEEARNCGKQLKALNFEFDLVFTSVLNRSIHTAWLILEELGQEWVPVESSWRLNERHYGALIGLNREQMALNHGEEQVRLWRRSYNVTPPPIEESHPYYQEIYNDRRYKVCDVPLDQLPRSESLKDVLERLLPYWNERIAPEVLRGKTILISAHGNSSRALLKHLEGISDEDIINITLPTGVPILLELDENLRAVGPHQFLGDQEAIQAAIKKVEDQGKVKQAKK
hBPGM, sequence (P07738 whole entry, looked up): as the sequence (P07738 whole entry) above

Q: Which EC50 [1] does the source give for `Cc1nc(COc2ccccn2)sc1-c1cccc(-c2ccc(C(=O)O)c(O)c2)c1` [compound 4, 2-hydroxy-4-[3-[4-methyl-2-(2-pyridyloxymethyl)thiazol-5-yl]phenyl]benzoic Acid] here?
A: The EC50 was 23500 nM.

Q: How did the EC50 [1] turn out when `Cc1nc(COc2ncccn2)sc1-c1cccc(-c2ccc(S(=O)(=O)CC(=O)O)cc2)n1` [compound 2, 2-[4-[6-[4-methyl-2-(pyrimidin-2-yloxymethyl)thiazol-5-yl]-2-pyridyl]phenyl]sulfonylacetic Acid] was run?
A: Its EC50 is greater than 100000 nM.

Q: Which EC50 [2] does the source give for `Cc1nc(CNC(=O)C(C)CN(C)C)sc1-c1csc(-c2cc(O)c(C(=O)O)cc2F)n1` (stereo not drawn) [Example 117] here?
A: The EC50 was 8700 nM.

Q: And the IC50 [3]?
A: Its IC50 is 170 nM.

Q: How did the EC50 [2] turn out when `Cc1nc(CNC(=O)C2COC2)sc1-c1cccc(-c2ccc(C(=O)O)c(O)c2)c1` [Example 247] was run?
A: The EC50 was 3900 nM.

Q: What about the IC50 [3] of the same compound?
A: The IC50 was 1000 nM.

Q: What does the source list for `Cc1nc(CNC(=O)c2cccnn2)sc1-c1csc(-c2cc(O)c(C(=O)O)cc2F)n1` [Example 171]?
A: EC50 [2]: 30 nM; IC50 [3]: 28 nM

Q: How did the EC50 [2] turn out when `Cc1nc(C)c(-c2nsc(-c3ccc(C(=O)O)c(O)c3)n2)s1` [Example 283] was run?
A: Its EC50 is 6500 nM.

Q: And the IC50 [3]?
A: The IC50 was 1300 nM.

Q: How did the EC50 [2] turn out when `Cc1nc(COc2cccnn2)sc1-c1csc(-c2cc(O)c(C(=O)O)cc2F)n1` [Example 131] was run?
A: Its EC50 is 40 nM.

Q: What about the IC50 [3] of the same compound?
A: Its IC50 is 42 nM.

Q: How did the EC50 [2] turn out when `Cc1nc(C)c(-c2nsc(-c3cc(O)c(C(=O)O)c(F)c3F)n2)s1` [Example 134] was run?
A: Its EC50 is 340 nM.

Q: And the IC50 [3]?
A: Its IC50 is 1000 nM.

Q: Which results are given for `Cc1nc(CNC(=O)C(C)C)sc1-c1csc(-c2cc(O)c(C(=O)O)cc2F)n1` [Example 231]?
A: EC50 [2]: 170 nM; IC50 [3]: 52 nM

Q: How did the EC50 [2] turn out when `Cc1nc(Cc2cccnc2)sc1-c1csc(-c2ccc(C(=O)O)c(O)c2)n1` [Example 250] was run?
A: The EC50 was 290 nM.

Q: And the IC50 [3]?
A: The IC50 was 250 nM.

Q: How did the EC50 [2] turn out when `Cc1nc(CNC2CCC2)sc1-c1csc(-c2cc(O)c(C(=O)O)cc2F)n1` [Example 186] was run?
A: The EC50 was 30 nM.

Q: And the IC50 [3]?
A: The IC50 was 380 nM.

Q: Which results are given for `Cc1nc(CNC(=O)C2CCN(C)C2)sc1-c1csc(-c2cc(O)c(C(=O)O)cc2F)n1` (stereo not drawn) [Example 127]?
A: EC50 [2]: 420 nM; IC50 [3]: 490 nM

Q: Which results are given for `Cc1nc(CNC(=O)c2ccccn2)sc1-c1csc(-c2cc(O)c(C(=O)O)cc2F)n1` [Example 200]?
A: EC50 [2]: 270 nM; IC50 [3]: 73 nM

Q: Which EC50 [2] does the source give for `COC(=O)C(=O)NCc1nc(C)c(-c2csc(-c3cc(O)c(C(=O)O)cc3F)n2)s1` [Example 201] here?
A: The EC50 was 640 nM.

Q: What about the IC50 [3] of the same compound?
A: Its IC50 is 110 nM.

Q: Which EC50 [2] does the source give for `Cc1nc(COc2ncccn2)sc1-c1cccc(-c2ccc(C(=O)O)s2)n1` [Example 88] here?
A: The EC50 was 12000 nM.

Q: What about the IC50 [3] of the same compound?
A: The IC50 was 1000 nM.

Q: With `COC(=O)NCc1nc(C)c(-c2cc(-c3cc(O)c(C(=O)O)cc3F)sn2)s1` [Example 168] as the compound, how does the EC50 [2] read?
A: The EC50 was 530 nM.

Q: And the IC50 [3]?
A: The IC50 was 370 nM.

Q: What does the source list for `Cc1nc(COC(=O)N(C)C)sc1-c1csc(-c2cc(O)c(C(=O)O)cc2F)n1` [Example 158]?
A: EC50 [2]: > 25000 nM; IC50 [3]: 44 nM

Q: What does the source list for `Cc1ccc(Cc2nc(C)c(-c3cccc(-c4ccc(C(=O)O)c(O)c4)c3)s2)cn1` [Example 257]?
A: EC50 [2]: 160 nM; IC50 [3]: 360 nM

Q: How did the EC50 [2] turn out when `COC(=O)NCc1nc(C)c(-c2cccc(-c3cc(O)c(C(=O)O)cc3F)n2)s1` [Example 235] was run?
A: Its EC50 is 140 nM.

Q: What about the IC50 [3] of the same compound?
A: Its IC50 is 110 nM.

Q: How did the EC50 [2] turn out when `Cc1nc(Cc2ccn(C)n2)sc1-c1csc(-c2cc(O)c(C(=O)O)cc2F)n1` [Example 160] was run?
A: Its EC50 is 130 nM.

Q: What about the IC50 [3] of the same compound?
A: Its IC50 is 65 nM.

Q: Which results are given for `Cc1nc(COC2CCCOC2)sc1-c1cccc(-c2cc(C(=O)O)cs2)n1` (stereo not drawn) [Example 49]?
A: EC50 [2]: 520 nM; IC50 [3]: 350 nM

Q: Which EC50 [2] does the source give for `COC(=O)NCc1nc(C)c(-c2csc(-c3ccc(C(=O)O)c(O)c3)c2)s1` [Example 166] here?
A: The EC50 was 70 nM.

Q: What about the IC50 [3] of the same compound?
A: The IC50 was 250 nM.
